From article PMC11124387, “A Reliable Multifaceted Solution against Foodborne Viral Infections: The Case of RiLK1 Decapeptide” (Molecules, 2024)
Where two headings read alike, the source gives them in different places.

Columns and labels:
[1] = tested on: Hepatitis A virus (HAV) strain HM-175; test: Virucidal effect of peptides on HAV (residual infectivity by TCID50 titration on Frp3 cells); type: cell-based; details: for Viral Titre after Treatment: titration on Frp3 cells; for Viral Titre after Treatment / LRV (log reduction value): mean ± SD, triplicate
From the text: (§1) Murine norovirus strain 1 (MNV-1) was used as a surrogate for human norovirus (NoV). The virus was replicated in RAW 264.7 cells (murine macrophage cell line) cultured in Dulbecco’s modified Eagle’s medium (DMEM) supplemented with 1% glutamine, 1% non-essential amino acids, and 2% fetal bovine serum (FBS). Hepatitis A virus (HAV) strain HM-175 was replicated in Frp3 cells (non-human primate cell line derived from fetal kidney) cultured in minimum essential medium (MEM) with Earle’s salts supplemented with 1% glutamine, 2% non-essential amino acids, and 2% FBS. Both viruses were incubated in 5% CO2 at 37 °C. All cell culture media were provided by EuroClone (Milan, Italy). The viral suspensions were prepared by freeze and thaw lysis (1 cycle for MNV-1 and 3 cycles for HAV) of infected monolayers, clarified using low-speed centrifugation (800× g) to remove residual cell debris, then divided in aliquots, and stored at −80 °C until use.
(§2) Solutions 40 µM and 80 µM of each peptide of the panel (RiLK1, RiLK3, RiLK30, 1018-K6, MTP1, and AVP2) were chosen for the virucidal tests. HAV and MNV-1 were assayed at a concentration of 4.7 ± 0.2 log TCID50/mL and 4.5 ± 0.2 log TCID50/mL, respectively. The suspensions containing the peptides and viruses were incubated for 1 h at room temperature (RT,20 ± 2 °C) and 4 °C. These temperatures were chosen to simulate the use of sanitizing solutions in food production/processing environments. Residual viral infectivity was evaluated by titration (TCID50/mL) on Frp3 cells for HAV and on RAW 264.7 cells for MNV-1. Untreated HAV and MNV-1 suspensions and 40 µM and 80 µM AMP solutions, incubated at the same conditions, were used as controls. Each treatment condition was assayed in triplicate. For titration, 100 µL of serial tenfold dilutions of each sample were assayed in 24-well tissue culture plates containing 24–48 h cell monolayers and incubated for 1 h in 5% CO2 at 37 °C. After that, the wells were washed twice with 200 µL of PBS, and 500 µL of DMEM/MEM, supplemented with 2% of FBS, were was added to each well; MNV-1 and HAV incubations were carried for up to 6 days and 14 days, respectively, in 5% CO2 at 37 °C with daily visual inspection to determine the cytopathic effect. The virucidal efficacy of AMPs was estimated by comparing the titers of treated and untreated viral suspensions.
(§3) For each treatment, the average and standard deviation of the triplicate analyses were calculated. The virucidal effects of AMPs was assessed by calculating the log reduction value (LRV), i.e., the difference between the infectious titer (log-transformed) of untreated versus treated samples. The statistical significance of differences between treated and untreated samples was determined through one-way analysis of variance (ANOVA) with Bonferroni post hoc comparisons, with a significance level of p < 0.05 (GraphPad Prism v9.5.0, software San Diego, CA, USA).

[2] = tested on: Murine norovirus strain 1 (MNV-1); type: cell-based; details: for Viral Titre after Treatment: titration on RAW 264.7 cells; for Viral Titre after Treatment / LRV (log reduction value): mean ± SD, triplicate
From the text: as §1, §2, §3

Salmonella Napoli = test: Antibacterial assay, Salmonella Napoli; type: cell-based; details: even at the highest concentration tested (80 µM), 6 h at 37 °C
From the text: (§4) The monophasic variant of Salmonella Typhimurium, Salmonella Napoli, and Campylobacter jejuni were isolated by the Laboratory of Microbiological Food Control—Department of Food Microbiology of the Istituto Zooprofilattico Sperimentale del Mezzogiorno in Portici (Naples, Italy) in raw and processed foodstuffs of animal origin. Specifically, the monophasic variant of S. Typhimurium and S. Napoli were isolated from bivalve mollusks, while C. jejuni was isolated from poultry meat. Bacterial cells were cultured at 37 °C in the appropriate culture media (S. Typhimurium and S. Napoli in buffered peptone water (Thermo Fisher, Milan, Italy) and C. jejuni in Bolton Broth (Oxoid, Madrid, Spain)) until collection and then diluted in fresh broth to a final concentration of 1.5 × 10^3 colony forming units (CFUs)/mL. Thereafter, peptide stock solutions in DMSO were added to the bacterial suspension at the same concentrations used in the virucidal assays (40 and 80 µM) and incubated at 37 °C for 6 h. Samples containing only cell suspension and DMSO were used as controls. […]

Campylobacter jejuni = type: cell-based; details: peptide 40 and 80 µM, 6 h at 37 °C
From the text: as §4

[3] = pH 2; cited from earlier work
Method: In this context, to acquire important information on how the conformational properties of peptides might influence the structure–function relationships and their distinct membrane interaction profiles, the propensity of the new peptides, RiLK30 and AVP2, to adopt a defined secondary structure and to undergo conformational changes were examined by circular dichroism and fluorescence spectroscopy. These analyses were performed in the presence of a negatively charged SDS that is commonly used as a biomimetic membrane model to study the structural features of membranotropic molecules. In previous ...

[4] = HAV + peptide 40 µM, 1 h at RT (20 ± 2 °C)
[5] = HAV + peptide 80 µM, 1 h at RT (20 ± 2 °C)
[6] = MNV-1 + peptide 40 µM, 1 h at 4 °C
[7] = MNV-1 + peptide 40 µM, 1 h at RT (20 ± 2 °C)
[8] = MNV-1 + peptide 80 µM, 1 h at RT (20 ± 2 °C)

KVSGVLFGTGLWVAL-NH2 [MTP1, previously designed 15-residue antimicrobial peptide, C-terminally amidated]
Viral Titre after Treatment ([1]; HAV 4.7 ± 0.2 log TCID50/mL + peptide 80 µM, 1 h at 4 °C): 3.8 ± 0.2 logTCID50/mL
Viral Titre after Treatment ([1]; HAV + peptide 40 µM, 1 h at 4 °C): 3.6 ± 0.3 logTCID50/mL
LRV (log reduction value) ([1]; HAV + peptide 40 µM, 1 h at 4 °C, untreated minus treated titre): 1.1 ± 0.2 logTCID50/mL
LRV (log reduction value) [1, 4]: 1.5 ± 0.4 logTCID50/mL
Viral Titre after Treatment [1, 4]: 3.2 ± 0.2 logTCID50/mL
LRV (log reduction value) ([1]; HAV + peptide 80 µM, 1 h at 4 °C, untreated minus treated titre): 0.9 ± 0.4 logTCID50/mL
LRV (log reduction value) [1, 5]: 1.2 ± 0.3 logTCID50/mL
Viral Titre after Treatment [1, 5]: 3.5 ± 0.1 logTCID50/mL
decrease of HAV infectious titer ([1]; maximum reduction, corresponding to the highest LRV): up to 97.3%
virucidal activity toward MNV-1 (in words) ([2]; 40 and 80 µM, 4 °C and RT): no significant effects
Viral Titre after Treatment ([2]; MNV-1 4.5 ± 0.2 log TCID50/mL + peptide 80 µM, 1 h at 4 °C): 4.5 ± 0.1 logTCID50/mL
LRV (log reduction value) [2, 6]: 0.1 ± 0.3 logTCID50/mL
Viral Titre after Treatment [2, 6]: 4.4 ± 0.1 logTCID50/mL
LRV (log reduction value) [2, 7]: 0 ± 0.4 logTCID50/mL
Viral Titre after Treatment [2, 7]: 4.5 ± 0.2 logTCID50/mL
LRV (log reduction value) ([2]; MNV-1 + peptide 80 µM, 1 h at 4 °C): 0 ± 0.3 logTCID50/mL
LRV (log reduction value) [2, 8]: 0 ± 0.4 logTCID50/mL
Viral Titre after Treatment [2, 8]: 4.5 ± 0.2 logTCID50/mL
bactericidal activity (growth inhibition on selective plates) (Salmonella Napoli): no detectable killing effects
inhibitory activity against Campylobacter jejuni (in words) (Campylobacter jejuni): did not display any inhibitory activity
structural stability [3]: high structural stability
